Test results: the NIST ThermoML archive (doi:10.1016/j.jct.2004.07.024)
± gives the expanded uncertainty stated by the source.

Test: xn = mol fraction of the nth substance listed
Settings: 101.33 kPa, Liquid

C=Cc1ccccc1 [styrene] + C[S+](C)[O-]
mass density (293.15 K, x1 = 0.062): 1081.91 ± 0.31 kg/m3 | mass density (293.15 K, x1 = 0.1289): 1064.06 ± 0.31 kg/m3 | mass density (293.15 K, x1 = 0.2169): 1042.53 ± 0.3 kg/m3 | mass density (293.15 K, x1 = 0.2956): 1024.85 ± 0.31 kg/m3 | mass density (293.15 K, x1 = 0.3596): 1011.37 ± 0.31 kg/m3 | mass density (293.15 K, x1 = 0.4103): 1001.24 ± 0.32 kg/m3 | mass density (293.15 K, x1 = 0.4596): 991.74 ± 0.34 kg/m3 | mass density (293.15 K, x1 = 0.5023): 983.85 ± 0.36 kg/m3 | mass density (293.15 K, x1 = 0.5689): 972.01 ± 0.38 kg/m3 | mass density (293.15 K, x1 = 0.626): 962.31 ± 0.4 kg/m3 | mass density (293.15 K, x1 = 0.7025): 949.86 ± 0.43 kg/m3 | mass density (293.15 K, x1 = 0.7865): 936.88 ± 0.46 kg/m3 | mass density (293.15 K, x1 = 0.8595): 926.02 ± 0.48 kg/m3 | mass density (293.15 K, x1 = 0.9312): 915.7 ± 0.51 kg/m3 | mass density (303.15 K, x1 = 0.0852): 1066.12 ± 0.3 kg/m3 | mass density (303.15 K, x1 = 0.1495): 1049.28 ± 0.29 kg/m3 | mass density (303.15 K, x1 = 0.2015): 1036.5 ± 0.29 kg/m3 | mass density (303.15 K, x1 = 0.2695): 1020.82 ± 0.3 kg/m3 | mass density (303.15 K, x1 = 0.3351): 1006.61 ± 0.3 kg/m3 | mass density (303.15 K, x1 = 0.4055): 992.33 ± 0.32 kg/m3 | mass density (303.15 K, x1 = 0.4824): 977.63 ± 0.35 kg/m3 | mass density (303.15 K, x1 = 0.5588): 963.89 ± 0.38 kg/m3 | mass density (303.15 K, x1 = 0.6196): 953.53 ± 0.4 kg/m3 | mass density (303.15 K, x1 = 0.6726): 944.85 ± 0.42 kg/m3 | mass density (303.15 K, x1 = 0.7369): 934.68 ± 0.45 kg/m3 | mass density (303.15 K, x1 = 0.8069): 924.05 ± 0.47 kg/m3 | mass density (303.15 K, x1 = 0.8756): 913.99 ± 0.49 kg/m3 | mass density (303.15 K, x1 = 0.9458): 904.01 ± 0.52 kg/m3 | mass density (313.15 K, x1 = 0.0665): 1060.82 ± 0.29 kg/m3 | mass density (313.15 K, x1 = 0.1856): 1029.88 ± 0.28 kg/m3 | mass density (313.15 K, x1 = 0.2581): 1012.95 ± 0.28 kg/m3 | mass density (313.15 K, x1 = 0.3296): 997.38 ± 0.3 kg/m3 | mass density (313.15 K, x1 = 0.3895): 985.13 ± 0.32 kg/m3 | mass density (313.15 K, x1 = 0.4469): 973.98 ± 0.34 kg/m3 | mass density (313.15 K, x1 = 0.5132): 961.75 ± 0.37 kg/m3 | mass density (313.15 K, x1 = 0.5958): 947.37 ± 0.4 kg/m3 | mass density (313.15 K, x1 = 0.6553): 937.53 ± 0.42 kg/m3 | mass density (313.15 K, x1 = 0.7125): 928.47 ± 0.44 kg/m3 | mass density (313.15 K, x1 = 0.7665): 920.19 ± 0.46 kg/m3 | mass density (313.15 K, x1 = 0.8269): 911.23 ± 0.48 kg/m3 | mass density (313.15 K, x1 = 0.8801): 903.57 ± 0.5 kg/m3 | mass density (313.15 K, x1 = 0.9485): 893.98 ± 0.52 kg/m3 | mass density (323.15 K, x1 = 0.0653): 1050.77 ± 0.27 kg/m3 | mass density (323.15 K, x1 = 0.1856): 1019.46 ± 0.27 kg/m3 | mass density (323.15 K, x1 = 0.2513): 1004.06 ± 0.27 kg/m3 | mass density (323.15 K, x1 = 0.3257): 987.81 ± 0.3 kg/m3 | mass density (323.15 K, x1 = 0.3969): 973.33 ± 0.33 kg/m3 | mass density (323.15 K, x1 = 0.4582): 961.55 ± 0.35 kg/m3 | mass density (323.15 K, x1 = 0.5296): 948.61 ± 0.38 kg/m3 | mass density (323.15 K, x1 = 0.5701): 941.56 ± 0.4 kg/m3 | mass density (323.15 K, x1 = 0.6352): 930.72 ± 0.42 kg/m3 | mass density (323.15 K, x1 = 0.6925): 921.57 ± 0.44 kg/m3 | mass density (323.15 K, x1 = 0.7468): 913.21 ± 0.46 kg/m3 | mass density (323.15 K, x1 = 0.8169): 902.83 ± 0.48 kg/m3 | mass density (323.15 K, x1 = 0.8825): 893.48 ± 0.51 kg/m3 | mass density (323.15 K, x1 = 0.9555): 883.37 ± 0.53 kg/m3 | mass density (333.15 K, x1 = 0.0626): 1041.08 ± 0.26 kg/m3 | mass density (333.15 K, x1 = 0.1745): 1011.71 ± 0.26 kg/m3 | mass density (333.15 K, x1 = 0.2469): 994.63 ± 0.27 kg/m3 | mass density (333.15 K, x1 = 0.2963): 983.69 ± 0.29 kg/m3 | mass density (333.15 K, x1 = 0.3458): 973.27 ± 0.31 kg/m3 | mass density (333.15 K, x1 = 0.3899): 964.37 ± 0.33 kg/m3 | mass density (333.15 K, x1 = 0.4525): 952.34 ± 0.36 kg/m3 | mass density (333.15 K, x1 = 0.5252): 939.14 ± 0.38 kg/m3 | mass density (333.15 K, x1 = 0.6053): 925.5 ± 0.41 kg/m3 | mass density (333.15 K, x1 = 0.6852): 912.68 ± 0.44 kg/m3 | mass density (333.15 K, x1 = 0.7562): 901.86 ± 0.47 kg/m3 | mass density (333.15 K, x1 = 0.8362): 890.23 ± 0.5 kg/m3 | mass density (333.15 K, x1 = 0.8826): 883.72 ± 0.51 kg/m3 | mass density (333.15 K, x1 = 0.9332): 876.75 ± 0.53 kg/m3 | mass density (343.15 K, x1 = 0.0866): 1023.99 ± 0.25 kg/m3 | mass density (343.15 K, x1 = 0.1762): 1000.88 ± 0.25 kg/m3 | mass density (343.15 K, x1 = 0.2459): 984.45 ± 0.28 kg/m3 | mass density (343.15 K, x1 = 0.2856): 975.61 ± 0.29 kg/m3 | mass density (343.15 K, x1 = 0.3595): 960.11 ± 0.33 kg/m3 | mass density (343.15 K, x1 = 0.4041): 951.25 ± 0.34 kg/m3 | mass density (343.15 K, x1 = 0.4896): 935.26 ± 0.38 kg/m3 | mass density (343.15 K, x1 = 0.5695): 921.33 ± 0.41 kg/m3 | mass density (343.15 K, x1 = 0.6254): 912.1 ± 0.43 kg/m3 | mass density (343.15 K, x1 = 0.6925): 901.53 ± 0.45 kg/m3 | mass density (343.15 K, x1 = 0.7569): 891.83 ± 0.47 kg/m3 | mass density (343.15 K, x1 = 0.8042): 884.96 ± 0.49 kg/m3 | mass density (343.15 K, x1 = 0.8685): 875.91 ± 0.51 kg/m3 | mass density (343.15 K, x1 = 0.9344): 866.93 ± 0.53 kg/m3 | mass density (353.15 K, x1 = 0.0659): 1019.29 ± 0.24 kg/m3 | mass density (353.15 K, x1 = 0.1289): 1002.33 ± 0.24 kg/m3 | mass density (353.15 K, x1 = 0.1865): 987.92 ± 0.26 kg/m3 | mass density (353.15 K, x1 = 0.2415): 975.04 ± 0.28 kg/m3 | mass density (353.15 K, x1 = 0.3063): 960.8 ± 0.31 kg/m3 | mass density (353.15 K, x1 = 0.3895): 943.8 ± 0.35 kg/m3 | mass density (353.15 K, x1 = 0.4589): 930.59 ± 0.37 kg/m3 | mass density (353.15 K, x1 = 0.5362): 916.84 ± 0.4 kg/m3 | mass density (353.15 K, x1 = 0.6089): 904.68 ± 0.43 kg/m3 | mass density (353.15 K, x1 = 0.6812): 893.25 ± 0.46 kg/m3 | mass density (353.15 K, x1 = 0.7462): 883.47 ± 0.48 kg/m3 | mass density (353.15 K, x1 = 0.8126): 873.91 ± 0.5 kg/m3 | mass density (353.15 K, x1 = 0.8865): 863.68 ± 0.52 kg/m3 | mass density (353.15 K, x1 = 0.9522): 854.91 ± 0.55 kg/m3
